Tests used:
[1] = system: K562, HL-60, MOLT-4, HEp-2, NCI-H292, HT-29 and MCF-7 tumor cell lines; experiment: Cytotoxic screening against the panel of tumor cell lines (MTT); type: cell-based, human; conditions: Homo sapiens; range over the seven tumor cell lines, 72 h; read-out: IC50 values across all tested cell lines
Description: The cytotoxicity assessment was performed against three human cancer cell lines in suspension (K562, HL-60 and MOLT-4) and four adhered (HEp-2, NCI-H292, HT-29 and MCF-7).
The cells were obtained from the Cell Bank of Rio de Janeiro and maintained in the Laboratory of Cell Culture of the Department of Antibiotics of the Federal University of Pernambuco. The lines K562 (myeloblastic leukaemia), HL-60 (promyelocytic leukemia) and MOLT-4 (lymphoblastic leukemia) were cultured in RPMI 1640 medium and the lines HEp-2 (larynx carcinoma), NCI-H292 (lung carcinoma), HT-29 (colon adenocarcinoma) and MCF-7 (breast adenocarcinoma) were cultured in DMEM medium, supplemented with 10% fetal bovine serum, 2 mM glutamine, 100 U/mL penicillin and 100 μg/mL streptomycin (Gibco™ Life Technologies), at 37 °C and 5% CO2.
The evaluation of the cytotoxicity of the compounds was performed by the method of 3-(4,5-dimethyl-2-thiazolyl)-2,5-diphenyl-2H-tetrazolium bromide (MTT) (Sigma Aldrich Co., St. Louis, MO, USA). To perform the assay the cells were seeded in 96-well plates at the following concentrations: HL-60 and K562 (0.3 × 10^6 cells/mL); MOLT-4 and PBMC (10^6 cells/mL); NCI-H292, HT-29, HEp-2 e MCF-7 (10^5 cells/mL). Briefly, the compounds previously dissolved in DMSO (dimethylsulfoxide, Vetec, São Paulo, Brazil), were diluted in medium and added to each well at the desired concentrations. For the calculation of the concentration that inhibits 50% of cell growth (IC50) the compounds were serially diluted to obtain the final concentrations between 0.19–25 μg/mL. Doxorubicin was used as the standard in the concentration range between (0.078–10 μg/mL). After 72 h of contact of the cells with the compounds, it was added to each well 25 μL of MTT solution (5 mg/mL). […] To perform the reading, 100 μL of DMSO was added in each well for the dissolution of the formazan crystals. The amount of formazan was measured by reading the plate at 560 nm absorbance. The IC50 was calculated from the nonlinear regression in the Prisma 7.0 software (GraphPad, San Diego, CA, USA). […]

HL-60 cells = experiment: Cell viability, Guava ViaCount kit, flow cytometry; type: cell-based, human; conditions: 22 μM, 72 h
Description: Initially, the percentage of viable cells in apoptosis or necrosis was determined by the ViaCount assay at the Guava EasyCyte HT flow cytometer (Merck-Millipore, Hayward, CA, USA). The ViaCount kit (Merck-Millipore, Hayward, CA, USA) determines cell viability based on membrane permeability. The concentrations used in the cytometric tests were values corresponding to the IC50 and 2x IC50 of 72 h and the chosen cell line was HL-60 (promyelocytic leukemia).
HL-60 cells (3 × 10^5) were plated in 24-well plates and treated with the compounds 3c (13 and 26 μM) and 4a (11 and 22 μM) for 72 h at 37 °C with 5% CO2. In all trials, doxorubicin was used as a positive control. After the incubation period, an aliquot of 500 μL of treated and untreated cells suspension was transferred to an Eppendorf tube and centrifuged to remove the supernatant and continue the protocol of the test. In the cell viability and annexin V assays, kits were used, ViaCount kit and guava nexin kit (Guava Technologies), respectively. The protocols performed in these tests followed the manufacturer’s instructions. For to analyze mitochondrial depolarization, rhodamine 123 fluorescent dye was used. In the assay for cell cycle analysis and DNA fragmentation propidium iodide was used. […] The data were analyzed in Guava-Soft™ software version 2.7. […]

Row | SMILES | melting point [°C] | IC50 [1] [µM] | cells in early apoptosis (ViaCount) (HL-60 cells) [%]
1 | Cc1ccc(C=NNC(N)=O)cc1 [Compound 3g, 4-Methylbenzaldehyde Semicarbazone] | 215 to 217 |  | 
2 | NC(=O)N/N=C/c1c(O)ccc2ccccc12 [Compound 3c, 2-Hydroxynaphthaldehyde Semicarbazone] |  | 13.1 to 56.3 | 
3 | CCCCN(N=Cc1ccc([N+](=O)[O-])o1)C(N)=O [Compound 4a, 5-Nitro-2-(N^2-n-butyl)furfuraldehyde Semicarbazone] |  | 11.4 to 37.9 | 65.3

From paper PMC6958387, “Biological Evaluation of Arylsemicarbazone Derivatives as Potential Anticancer Agents” (Pharmaceuticals, 2019)
